This is an account of results in ChEMBL document CHEMBL5518155, “Recent advances on dual inhibitors targeting HIV reverse transcriptase associated polymerase and ribonuclease H” (Eur J Med Chem, 2023).

Data set [1] concerns Human alphaherpesvirus 1. The experiment in a line: Antiviral activity against HSV-1 KOS infected in African green monkey Vero cells assessed as reduction in virus induced cytopathogenicity by plaque reduction assay. Format: functional, organism-based. The conditions noted are these: Human alphaherpesvirus 1, KOS.
The subject of data set [2] is Human alphaherpesvirus 1. Kind of data set: Antiviral activity against HSV-1 infected in African green monkey Vero cells by plaque reduction assay. Format: functional, organism-based. The conditions noted are these: Human alphaherpesvirus 1, Vero.
Data set [3] deals with Human alphaherpesvirus 2. The experiment in a line: Antiviral activity against HSV-2 infected in African green monkey Vero cells assessed as reduction in virus induced cytopathogenicity by plaque reduction assay. Format: functional, organism-based. The conditions noted are these: Human alphaherpesvirus 2, Vero. In general terms: Protection from cytopathic effect is a common read-out in antiviral testing.

Data set [4] has as its target T1, Human immunodeficiency virus type 1 reverse transcriptase (Human immunodeficiency virus 1, UniProt Q72547). The experiment in a line: Inhibition of recombinant HIV-1 reverse transcriptase associated RNase H expressed in Escherichia coli BL21 (DE3) using 5-GTTTTCTTTTCCCCCCTGAC-3 Fluorescein/5CAAAAGAAAAGGGGGGACUG-3-Dabcyl as substrate incubated for 1 hr by multilabel counter plate reader method.

Data set [5] is described as follows: Inhibition of HIV-1 RNA-dependent […]. On the set-up: species or system Human immunodeficiency virus 1.
The target of data set [6] is T1, Human immunodeficiency virus type 1 reverse transcriptase. Kind of data set: Inhibition of HIV-1 reverse transcriptase associated RNA-dependent DNA polymerase.
Data set [7] shares this target. The experiment in a line: Inhibition of HIV-1 RNase H.
Data set [8] can be described thus: Inhibition of DNA polymerase (unknown origin). On the set-up: species or system Homo sapiens.
For data set [9], the target named is T1, Human immunodeficiency virus type 1 reverse transcriptase. Kind of data set: Inhibition of recombinant HIV-1 reverse transcriptase associated RNA-dependent DNA polymerase activity incubated for 30 mins by liquid scintillation method.
The nature of data set [10]: Inhibition of Escherichia coli DNA polymerase I.
For data set [11], the target named is T1, Human immunodeficiency virus type 1 reverse transcriptase. Kind of data set: Inhibition of N-terminal 6-his-tagged HIV-1 reverse transcriptase RNase H (427 to 560 residues) transfected in Escherichia coli BL21 (DE3).
Data set [12] has as its system Human immunodeficiency virus 1. The experiment in a line: Antiviral activity against wild-type HIV-1 IIIB infected in human MT4 cells assessed as virus-induced cytopathicity treated for 5 days by MTT assay. Format: functional, organism-based. The conditions noted are these: Human immunodeficiency virus 1, IIIB, MT4, 120 h.
The subject of data set [13] is Human immunodeficiency virus 1. The experiment in a line: Antiviral activity against HIV-1 harboring reverse transcriptase […] mutant infected in human MT4 cells assessed as reduction in virus-induced cytopathic effect. Format: functional, organism-based. The conditions noted are these: Human immunodeficiency virus 1, MT4.
Data set [14] is described as follows: Cytotoxicity against HEK-293T cells assessed as reduction in cell growth measured for 72 hrs by MTT assay. Format: toxicity, cell-based. The conditions noted are these: human. On the technique in general: Tetrazolium dyes change colour on reduction, which living cells bring about.
Data set [15] has as its system Human immunodeficiency virus 1. The experiment in a line: Antiviral activity against HIV-1 harboring L100I mutant infected in human MT4 cells assessed as virus-induced cytopathicity treated for 5 days by MTT assay. Format: functional, organism-based. The conditions noted are these: Human immunodeficiency virus 1, MT4, 120 h.
Data set [16] has as its system Hepatitis B virus. Kind of data set: Antiviral activity against HBV infected in AML12HBV10 cells assessed as reduction viral replication incubated for 48 hrs. Format: functional, organism-based. The conditions noted are these: AML12HBV10, 48 h.
Data set [17] concerns the target T1, Human immunodeficiency virus type 1 reverse transcriptase. Kind of data set: Inhibition of HIV-1 RNase H polymerase activity.
The test system of data set [18] is Hepatitis B virus. The experiment in a line: Antiviral activity against HBV infected in human HepDES19 cells assessed as reduction in cccDNA accumulation by southern blot analysis. Format: functional, organism-based.
Data set [19] has as its system TZM. The experiment in a line: Cytotoxicity against human TZM-bl cells assessed as reduction in viability incubated for 48 hrs by MTT assay. Format: functional.
The test system of data set [20] is Human immunodeficiency virus 1. The experiment in a line: Antiviral activity against wild type HIV-1 IIIB infected in human MT4 cells assessed as protection against virus-induced cytopathic effect incubated for 5 days by MTT assay. Format: functional, organism-based. The conditions noted are these: Human immunodeficiency virus 1, IIIB, MT4, 120 h.
Data set [21] relates to Human immunodeficiency virus 1. The experiment in a line: Antiviral activity against HIV1. Format: functional, organism-based.
Data set [22] in a line: Cytotoxicity against african green monkey Vero E6 cells incubated for 24 hrs by Cell-titer 96 cell proliferation assay. Format: toxicity, cell-based, Vero C1008. The conditions noted are these: chlorocebus sabaeus.

The EC50 is the midpoint of the concentration-response curve. Regarding `Cc1cc(O)c(=O)c(O)c(O)c1C(=O)c1ccc(-c2ccccc2)cc1`, the values for the EC50 in [1], in [2] and in [3] were 0.052 µM, 0.052 µM and 0.05 µM, respectively.

Broadly, the IC50 is the point on the concentration scale where inhibition reaches its midpoint. Consider `O=C(Nc1sc2c(c1C(=O)Nc1ccccn1)CCCCC2)c1ccc(O)c(O)c1`, for which the IC50 in [4] was determined as 0.84 µM.

Regarding `O=C1c2ccccc2C(=O)c2c1ccc(O)c2O` [ATHRAQUINONES A], the figures for the half-maximal inhibitory concentration (IC50) in [4] and in [5] were greater than 100 µM and 79 µM, respectively.

In the case of `Nc1ccc(S(=O)(=O)N2CCN(C(=O)c3cc(O)c(O)c(O)c3)CC2)cc1`, the IC50 in data set [6] is greater than 50 µM.

On to `COc1ccc2ccccc2c1/C=N/NC(=O)c1ccc(O)c(O)c1`, for which the results for the IC50 in data set [7] and in [8] were 15 µM and greater than 50 µM, respectively.

As for `CC(C)(C)c1ccc(C(=O)N/N=C/c2c(O)ccc3ccccc23)cc1`, the concentration for half-maximal inhibition (IC50) in data set [9] is 0.8 µM; in data set [10] it was 12.5 µM; in data set [11], 3.5 µM. Also, the EC50 in [12] stood at 1.5 µM.

For `Cn1c(-c2ccc(-c3ccccc3)cc2)cs/c1=N/N=C1\C(=O)Nc2ccc(Cl)cc21`, the results for the IC50 in [9] and in [7] were 9.8 µM and 10 µM, respectively.

Take `COc1ccc(-c2cccc(C(N)=O)c2)cc1/C=N/Nc1nc(-c2ccc([N+](=O)[O-])cc2)cs1`: the IC50 in data set [5] was determined as 8 µM; in data set [7], 4.5 µM.

Usually CC50 stands for the concentration giving 50% cytotoxicity. For `O=C(Oc1ccc2c(c1OC(=O)c1ccccc1)C(=O)c1ccccc1C2=O)c1ccccc1`, half-maximal inhibition in [5] (IC50) was put at 12 µM. The EC50 in [13] was greater than 100 µM. Further, the CC50 at 72 h in data set [14] was roughly 100 µM.

For the compound `CC1=CC(c2ccccc2)n2nc(NC(=O)CCCc3ccc(C)cc3)nc2N1` (stereo not drawn), the IC50 in [11] was 13.1 µM; in data set [6] it was greater than 100 µM.

In the case of `COC(=O)c1c(C)cc(O)c(=O)c(O)c1Br`, the EC50 in data set [15] is 2.2 µM.

For the compound `COC(=O)c1c(C)cc(OC)c(=O)c(O)c1O`, the EC50 in data set [16] is 0.93 µM.

For the compound `COC(=O)c1c(C)cc(OC)c(=O)c(O)c1OC`, in [17], the IC50 was determined as 13.5 µM. Moreover, the EC50 in data set [18] turned out to be 5.6 µM.

`COc1cc(C)c(C(=O)c2ccc(-c3ccccc3)cc2)c(O)c(O)c1=O` displayed an EC50 in data set [2] of 0.22 µM.

As to `Nc1nn(C(=O)c2ccc(Cl)cc2)c(N)c1C(=S)Nc1ccccc1`, the IC50 in data set [17] came out at 7 µM; in data set [6], 17 µM. In addition, in data set [19], the CC50 came to 44 µM. In data set [20], the EC50 came to 25 µM.

Turning to `N#Cc1ccc(-c2csc(NN=C3C(=O)Nc4ccccc43)n2)cc1`, the IC50 was found to be 9.5 µM in data set [9] and 1.3 µM in [7].

For the compound `O=C(Nc1nc2n(n1)C(c1ccccc1)C=C(c1ccccc1)N2)c1ccc(O)c(O)c1` (stereo not drawn), the results for the IC50 in [11] and in [6] were 1.86 µM and 20.5 µM, respectively.

In data set [17], `COC(=O)c1c(C)cc(O)c(=O)c(O)c1O` had an IC50 of 1.5 µM. Also, the EC50 amounted to 6 µM in data set [18], 0.19 µM in data set [1], 0.19 µM in [2] and 0.4 µM in [3].

As for `COc1cc(OC)cc(OC(=O)c2ccc(C(F)(F)F)cc2Nc2cc(Cl)ccc2C)c1`, the IC50 in [5] and in data set [6] was 16.1 µM throughout. Moreover, a half-maximal response in data set [21] (EC50) required 5 µM. The CC50 at 24 h in data set [22] was greater than 50 µM.

`O=c1oc(-c2ccc(O)c(O)c2)nc2sc3ccccc3c12`: in data set [4], the IC50 was 0.53 µM.

As to `NC(=O)c1c(N)sc2c1CCCCC2`, the IC50 in data set [4] worked out at 2 µM.

For the compound `COc1c(/C=C/C(=O)c2ccc(-c3ccccc3)cc2)ccc2ccccc12`, the IC50 in data set [5] stood at 4 µM; in data set [7] it was 6 µM.

Take `COc1ccccc1C(=O)N1CCC(NC(=O)c2cc(O)c(O)c(O)c2)CC1`: the half-inhibitory concentration (IC50) stood at 13.1 µM in data set [17] and 39.9 µM in data set [6].

Regarding `COc1ccc2ccccc2c1/C=N/NC(=O)c1ccc(C(C)(C)C)cc1`, the IC50 in data set [7] was found to be 3 µM; in data set [8], 2 µM.

For the compound `O=C1Nc2ccccc2/C1=N/Nc1nc(-c2ccc(O)c(O)c2)cs1`, in data set [5], the 50% inhibitory concentration (IC50) was found to be 1.4 µM.
